Blank lines part the entries; values can stand above or below the molecule they belong to.
Tests used:
[1] = Determination of the log P values by HPLC (formic acid method); format: physicochemical; conditions: reversed-phase column (C 18), acidic range (pH 3.4), 55° C.
Experimental: 1) Description of Method for Determination of the Log P Values (Formic Acid Method)
Eluents for determination in the acidic range (pH 3.4):
Eluent A: acetonitrile+1 ml of formic acid/liter. Eluent B: water+0.9 ml of formic acid/liter.
The lambda max values were determined in the maxima of the chromatographic signals using the UV spectra from 200 nm to 400 nm.

Cooperia curticei = Cooperia curticei test (COOPCU); format: in vivo; conditions: for efficacy (kill): nematode larvae, after 5 days
Experimental: Cooperia curticei Test (COOPCU)
(§1) Solvent: dimethyl sulphoxide
To produce a suitable preparation of active compound, 10 mg of active compound are mixed with 0.5 ml of dimethyl sulphoxide, and the concentrate is diluted with Ringer solution to the desired concentration.
Vessels containing the active compound preparation of the desired concentration are populated with about 40 nematode larvae (Cooperia curticei).
After 5 days, the kill in % is determined 100% means that all of the larvae have been killed; 0% means that none of the larvae have been killed.

spider mites = assay: spider mite test, efficacy in % after 6 days; format: in vivo; conditions: application rate of 500 g/ha, 100% = all spider mites killed, 0% = none killed
Experimental: After 6 days, the efficacy in % is determined. 100% means that all of the spider mites have been killed; 0% means that none of the spider mites have been killed.

Phaedon cochleariae = Phaedon cochleariae spray test (PHAECO); format: in vivo; conditions: foliar, 168 h, application rate 500 g/ha, larvae on Chinese cabbage leaf discs, after 7 days, read-out: efficacy
Experimental: Phaedon cochleariae Spray Test (PHAECO)
Solvents: 78.0 parts by weight of acetone • • 1.5 parts by weight of dimethylformamide
Emulsifier: 0.5 part by weight of alkylaryl polyglycol ether
To produce a suitable preparation of active compound, 1 part by weight of active compound is mixed with the stated amounts of solvents and emulsifier, and the concentrate is diluted with emulsifier-containing water to the desired concentration.
After 7 days, the efficacy in % is determined. 100% means that all of the beetle larvae have been killed; 0% means that none of the beetle larvae have been killed.

Meloidogyne incognita = Meloidogyne incognita test (MELGIN); format: in vivo; conditions: application rate 20 ppm, lettuce in sand, after 14 days; for pest or weed control at 20 ppm: Meloidogyne incognita, 336 h, read-out: nematicidal effect (formation of galls)
Experimental: Meloidogyne incognita Test (MELGIN)
Solvent: 125.0 parts by weight of acetone
To prepare a suitable active compound preparation, 1 part by weight of active compound is mixed with the stated amount of solvent and the concentrate is diluted with water to the desired concentration.
Vessels are filled with sand, active compound solution, an egg/larvae suspension of the root-knot nematode (Meloidogyne incognita) and lettuce seeds. The lettuce seeds germinate and the plants develop. On the roots, galls are formed.
After 14 days, the nematicidal effect in % is determined by the formation of galls. 100% means that no galls have been found; 0% means that the number of galls on the treated plants corresponds to the untreated control.

Boophilus microplus = Boophilus microplus test (DIP); format: in vivo; conditions: application rate 100 ppm, after 7 days by laying of fertile eggs, 100% = no fertile eggs
Experimental: Boophilus microplus Test (DIP)
Test animals: adult engorged Boophilus microplus females of the SP-resistant Parkhurst strain
as §1
10 mg of active compound are dissolved in 0.5 ml of dimethyl sulphoxide. For the purpose of preparing a suitable formulation, the active compound solution is diluted with water to the concentration desired in each case.
This active compound preparation is pipetted into tubes. 8-10 ticks are transferred into a further tube with holes. The tube is immersed into the active compound formulation, and all ticks are completely wetted. After the liquid has run out, the ticks are transferred onto filter discs in plastic dishes and stored in a climate-controlled room.
The activity is assessed after 7 days by laying of fertile eggs. Eggs whose fertility is not visible from the outside are stored in a climate-controlled cabinet until the larvae hatch. An efficacy of 100% means that none of the ticks has laid any fertile eggs.

[2] = reversed-phase HPLC column (C 18)
[3] = Cooperia curticei, 120 h, read-out: efficacy (kill)

log P [1]: 2.93
Compound: O=C(Nc1cnn(-c2ccccc2Br)n1)c1ccccc1Cl [Compound I-2-7]
efficacy (kill) (Cooperia curticei; application rate 4 ppm): 80%

log P [1]: 2.88
Compound: O=C(Nc1ccn(-c2ccc(F)cn2)n1)c1ccccc1C(F)(F)F [Compound I-1-596]
efficacy in % (spider mites): 95%

chromatographic logP [1, 2]: 3.06
Compound: O=C(Nc1nn(-c2ccccc2Cl)cc1Cl)c1ccccc1C(F)(F)F [Compound I-1-15, N-[4-Chloro-1-(2-chlorophenyl)-1H-pyrazol-3-yl]-2-(trifluoromethyl)benzamide]
pest or weed control at 500 g/ha (Phaedon cochleariae): 100%

log P [1]: 1.99
Compound: O=C(Nc1ccn(-c2c(F)cccc2F)n1)c1cccnc1C(F)F [Compound I-1-248]
efficacy in % (spider mites): 80%

chromatographic logP [1, 2]: 2.63
Compound: Cc1cccc(C)c1-n1ccc(NC(=O)c2ccccc2Cl)n1 [Compound I-1-61, 2-Chloro-N-[1-(2,6-dimethylphenyl)-1H-pyrazol-3-yl]benzamide]
pest or weed control at 500 g/ha (Phaedon cochleariae): 100%

chromatographic logP [1, 2]: 3.04
Compound: O=C(Nc1ccn(-c2c(Cl)cccc2Cl)n1)c1ccccc1I [Compound I-1-123, N-[1-(2,6-Dichlorophenyl)-1H-pyrazol-3-yl]-2-iodobenzamide]
pest or weed control at 500 g/ha (Phaedon cochleariae): 100%

log P [1]: 3.40
Compound: CCOCN(C(=O)c1ccccc1C(F)(F)F)c1ccn(-c2c(F)cccc2F)n1 [Compound I-1-262]
efficacy in % (spider mites): 95%

log P [1]: 2.23
Compound: O=C(Nc1ccn(-c2ncccc2Cl)n1)c1ccccc1Br [Compound I-1-137]
nematicidal effect (formation of galls) (Meloidogyne incognita): 80%

chromatographic logP [1, 2]: 2.93
Compound: Cn1nc(C(F)(F)F)c(C(=O)Nc2ccn(-c3cc(F)ccc3F)n2)c1F [Compound I-1-72, N-[1-(2,5-Difluorophenyl)-1H-pyrazol-3-yl]-5-fluoro-1-methyl-3-(trifluoromethyl)-1H-pyrazole-4-carboxamide]
pest or weed control at 500 g/ha (Phaedon cochleariae): 100%

log P [1]: 2.91
Compound: O=C(Nc1ccn(-c2ccc(F)cc2F)n1)c1ccccc1Cl [Compound I-1-211]
efficacy (kill) (Cooperia curticei; application rate 100 ppm): 80%

log P [1]: 2.89
Compound: Cc1cc(NC(=O)c2cccnc2Br)nn1-c1ccc(F)cc1F [Compound I-1-210]
efficacy in % (spider mites): 95%

chromatographic logP [1, 2]: 2.47
Compound: N#Cc1nccnc1-n1ccc(NC(=O)c2ccccc2C(F)(F)F)n1 [Compound I-1-574, N-[1-(3-Cyanopyrazin-2-yl)-1H-pyrazol-3-yl]-2-(trifluoromethyl)benzamide]
pest or weed control at 20 ppm (Meloidogyne incognita): 100%

log P [1]: 1.97
Compound: O=C(Nc1ccn(-c2c(F)cccc2F)n1)c1cccnc1Br [Compound I-1-96]
efficacy (Boophilus microplus): 100%

chromatographic logP [1, 2]: 2.8
Compound: O=C(NC1=NN(c2c(F)cccc2F)CC1)c1ccccc1Br [Compound I-4-2, 2-Bromo-N-[1-(2,6-difluorophenyl)-4,5-dihydro-1H-pyrazol-3-yl]benzamide]
pest or weed control at 500 g/ha (Phaedon cochleariae): 100%

log P [1]: 2.67
Compound: O=C(Nc1ccn(-c2c(F)cccc2F)n1)c1ccccc1I [Compound I-1-83]
efficacy (Boophilus microplus): 100%

log P [1]: 3.68
Compound: O=C(c1ccccc1C(F)(F)F)N(CC1CC1)c1ccn(-c2c(F)cccc2F)n1 [Compound I-1-258]
efficacy in % (spider mites): 95%

chromatographic logP [1, 2]: 3.14
Compound: CN(C(=O)c1ccccc1Cl)c1ccn(-c2ccccc2Cl)n1 [Compound I-1-21, 2-Chloro-N-[1-(2-chlorophenyl)-1H-pyrazol-3-yl]-N-methylbenzamide]
pest or weed control at 500 g/ha (Phaedon cochleariae): 100%

Compound: O=C(Nc1ccn(-c2ncc(F)cc2F)n1)c1c(F)cccc1F [Compound I-1-146, N-[1-(3,5-Difluoropyridin-2-yl)-1H-pyrazol-3-yl]-2,6-difluorobenzamide]
chromatographic logP [1, 2]: 2.19 | pest or weed control at 100 ppm (Cooperia curticei; [3]): 100% | pest or weed control at 20 ppm (Meloidogyne incognita): 100%

log P [1]: 3.41
Compound: CCN(C(=O)c1ccccc1Cl)c1ccn(-c2ccccc2Cl)n1 [Compound I-1-22]
efficacy (kill) (Cooperia curticei; application rate 100 ppm): 80%

log P [1]: 3.05
Compound: O=C(Nc1ccn(-c2ncc(Cl)cc2Cl)n1)c1ccccc1C(F)(F)F [Compound I-1-428]
efficacy in % (spider mites): 95%

Compound: N#Cc1cccnc1-n1ccc(NC(=O)c2ccccc2C(F)(F)F)n1 [Compound I-1-575, N-[1-(3-Cyanopyridin-2-yl)-1H-pyrazol-3-yl]-2-(trifluoromethyl)benzamide]
chromatographic logP [1, 2]: 2.55 | pest or weed control at 20 ppm (Cooperia curticei; [3]): 100% | pest or weed control at 20 ppm (Meloidogyne incognita): 100%

log P [1]: 3.05
Compound: O=C(Nc1ccn(-c2ccccc2C(F)(F)F)n1)c1ccccc1I [Compound I-1-5]
efficacy (Boophilus microplus): 100%

log P [1]: 2.46
Compound: Cc1nn(C)c(Cl)c1C(=O)Nc1ccn(-c2ccccc2Cl)n1 [Compound I-1-48]
efficacy (Boophilus microplus): 100%

log P [1]: 2.95
Compound: O=C(Nc1ccn(-c2ccccc2Cl)n1)c1ccccc1I [Compound I-1-33]
efficacy (Boophilus microplus): 100%

log P [1]: 2.61
Compound: O=C(Nc1ccn(-c2ccc(F)cn2)n1)c1c(F)cccc1F [Compound I-1-598]
efficacy in % (spider mites): 85%

chromatographic logP [1, 2]: 2.84
Compound: CCOc1cccc(F)c1-n1ccc(NC(=O)c2ccccc2Cl)n1 [Compound I-1-117, 2-Chloro-N-[1-(2-ethoxy-6-fluorophenyl)-1H-pyrazol-3-yl]benzamide]
pest or weed control at 20 ppm (Meloidogyne incognita): 100% | pest or weed control at 500 g/ha (Phaedon cochleariae): 100%

log P [1]: 3.07
Compound: O=C(Nc1ccn(-c2ccccc2Br)n1)c1ccccc1I [Compound I-1-53]
efficacy (Boophilus microplus): 90%

chromatographic logP [1, 2]: 1.69
Compound: O=C(Nc1ccn(-c2c(F)cc(F)c[n+]2[O-])n1)c1ccccc1C(F)(F)F [Compound I-1-438, N-[1-(3,5-Difluoro-1-oxidopyridin-2-yl)-1H-pyrazol-3-yl]-2-(trifluoromethyl)benzamide]
pest or weed control at 20 ppm (Meloidogyne incognita): 90%

chromatographic logP [1, 2]: 3.41
Compound: N#Cc1c(-c2ccc(F)cc2)ccnc1-n1ccc(NC(=O)c2ccccc2C(F)(F)F)n1 [Compound I-1-641, N-{1-[3-Cyano-4-(4-fluorophenyl)pyridin-2-yl]-1H-pyrazol-3-yl}-2-(trifluoromethyl)benzamide]
pest or weed control at 20 ppm (Meloidogyne incognita): 90%

Compound: O=C(Nc1cnn(-c2c(F)cccc2F)n1)c1ccccc1C(F)(F)F [Compound I-2-35, N-[2-(2,6-Difluorophenyl)-2H-1,2,3-triazol-4-yl]-2-(trifluoromethyl)benzamide]
chromatographic logP [1]: 2.8 | pest or weed control at 20 ppm (Cooperia curticei; [3]): 100% | pest or weed control at 20 ppm (Meloidogyne incognita): 100% | pest or weed control at 500 g/ha (Phaedon cochleariae): 100%

log P [1]: 2.82
Compound: O=C(Nc1ccn(-c2c(F)cccc2F)n1)c1sccc1C(F)(F)F [Compound I-1-284]
efficacy (kill) (Cooperia curticei; application rate 4 ppm): 80%

chromatographic logP [1, 2]: 3.11
Compound: O=C(Nc1nn(-c2ccccc2Cl)cc1Br)c1ccccc1C(F)(F)F [Compound I-1-16, N-[4-Bromo-1-(2-chlorophenyl)-1H-pyrazol-3-yl]-2-(trifluoromethyl)benzamide]
pest or weed control at 500 g/ha (Phaedon cochleariae): 83%

log P [1]: 3.37
Compound: O=C(Nc1ccn(-c2cccc(Cl)c2F)n1)c1ccccc1C(F)(F)F [Compound I-1-555]
efficacy (kill) (Cooperia curticei; application rate 4 ppm): 90%

log P [1]: 2.84
Compound: O=C(Nc1ccn(-c2c(Cl)cccc2Cl)n1)c1ccccc1Cl [Compound I-1-121]
efficacy (kill) (Cooperia curticei; application rate 100 ppm): 80%

log P [1]: 2.83
Compound: O=C(Nc1ccn(-c2ccccc2Cl)n1)c1ccccc1Br [Compound I-1-32]
efficacy (Boophilus microplus): 80%

chromatographic logP [1, 2]: 2.79
Compound: Cc1ccccc1-n1ccc(NC(=O)c2ccccc2Br)n1 [Compound I-1-1, 2-BromoN-[1-(2-methylphenyl)-1H-pyrazol-3-yl]benzamide]
pest or weed control at 500 g/ha (Phaedon cochleariae): 100%

log P [1]: 3.09
Compound: O=C(Nc1ccn(-c2cccc(F)c2F)n1)c1ccccc1I [Compound I-1-190]
nematicidal effect (formation of galls) (Meloidogyne incognita): 90%
